Results reported in patent publication US20170057948A1, “INDOLE-LIKE TRK RECEPTOR ANTAGONISTS” (Tallinn University of Technology, priority 2015, published 2017).
Values after ≈ are worked out from the molar mass of the structure shown.

What was measured:
TrkA [1] = target: T1, TrkA (Rattus norvegicus, UniProt P35739); assay: PC-12/luc/Elk1 luciferase reporter cellular assay (NGF-induced); format: cell-based; details: 50 ng/ml NGF, 18 h treatment
T1 construct: endogenous in cells; host or cells: PC-12 and PC-12/luc/Elk1 (rat pheochromocytoma)
T1 sequence (P35739 33-799): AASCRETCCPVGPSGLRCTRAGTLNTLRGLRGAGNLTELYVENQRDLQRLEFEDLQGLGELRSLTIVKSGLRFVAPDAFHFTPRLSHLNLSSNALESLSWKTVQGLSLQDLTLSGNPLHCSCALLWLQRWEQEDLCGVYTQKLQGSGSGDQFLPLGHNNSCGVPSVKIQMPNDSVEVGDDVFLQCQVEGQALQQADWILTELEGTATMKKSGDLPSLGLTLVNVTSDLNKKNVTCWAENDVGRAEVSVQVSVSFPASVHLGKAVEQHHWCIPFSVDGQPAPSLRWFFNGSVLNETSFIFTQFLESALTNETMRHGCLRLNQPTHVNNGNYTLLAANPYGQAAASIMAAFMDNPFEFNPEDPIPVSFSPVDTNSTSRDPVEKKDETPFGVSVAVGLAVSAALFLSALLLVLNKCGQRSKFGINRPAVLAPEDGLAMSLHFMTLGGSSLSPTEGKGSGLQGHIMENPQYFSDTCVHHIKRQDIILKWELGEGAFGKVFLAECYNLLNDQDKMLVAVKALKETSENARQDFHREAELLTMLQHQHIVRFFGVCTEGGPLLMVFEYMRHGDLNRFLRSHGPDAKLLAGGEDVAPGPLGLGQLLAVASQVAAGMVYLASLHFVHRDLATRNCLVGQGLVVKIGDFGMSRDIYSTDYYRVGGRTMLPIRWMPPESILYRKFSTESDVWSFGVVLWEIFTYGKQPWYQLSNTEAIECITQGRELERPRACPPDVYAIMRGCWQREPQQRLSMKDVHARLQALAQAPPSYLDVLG
From the text: A stably transfected cell line was generated in order to assess the capability of the compounds to inhibit the activation of TrkA receptor in the natural (neural) cellular context. Once the endogenic TrkA of the PC-12/luc/Elk1 cell line becomes activated, the downstream events result in phosphorylation of Elk1, the GAL4-dbd fused to Elk1 binds then to GAL4 UAS and activates the transcription of luciferase (FIG. 3). To address the suitability of the generated system for screening application, the Z′-factor was determined (see also Examples section). […] Z′-factor value above 0.5 is considered an indication of a high quality assay. The timeframe of 18 hours with the highest Z′-factor value was chosen for subsequent experiments.
PC-12 (rat adrenal pheochromocytoma cell line) cells were transfected using LIPOD293 DNA In Vitro Transfection Reagent (SignaGen) with 1 μg of pFA2-Elk1 plasmid and 4 μg of pFR-LUC plasmid (PathDetect Elk1 trans-Reporting System; Agilent Technologies). pFA2-Elk1 plasmid codes for the fusion protein consisting of GAL4-dbd (DNA-binding domain) followed by Elk1 transcription factor and contains Geneticin G418 resistance gene neomycin. pFR-LUC plasmid codes for GAL4 upstream activation sequence (UAS) followed by luciferase reporter gene. A puromycin resistance gene was introduced to the pFR-LUC plasmid using Bst1107I and NdeI restrictases from pGL4.22[luc2CP/Puro] (Promega). The selection of transfected cells was initiated two days after the transfection with addition of 300 μg/ml of G418 (Sigma) and 0.75 μg/ml of puromycin (Sigma-Aldrich) and continued for about one and a half months until distinct cell colonies could be picked, plated, and tested for responsiveness to NGF. Generated cell line, called hereafter PC-12/luc/Elk1, was maintained in Dulbecco's Modified Eagle's Medium (DMEM; PAA) containing 6% fetal bovine serum (FBS; PAA), 6% horse serum (HS; PAA), 1% penicillin/streptomycin (PS; Gibco), 300 μg/ml of Geneticin G418, and 0.75 μg/ml of puromycin. […] PC-12 cells were maintained in DMEM containing 6% FBS, 6% HS, and 1% PS.
PC-12/luc/Elk1 cells were plated one day before the assay on 96 well plates in 25,000 cells per well. […] The plate was subjected to 10 minutes of shaking and, thereafter, analyzed using TECAN plate reader. […]
The IC50's of the compounds were determined using cellular and biochemical assays. In the cellular assays, using PC-12/luc/Elk1 and MG87/TrkB/luc/Elk1 cells, the compounds were assessed in gradual dilutions of the compounds in triplets together with NGF or BDNF (Peprotech), respectively. TrkA inhibition was determined using same methodology as for measuring the Z′-factor with 18 h treatment time. […]

[2] = system: cortical neurons, PC-12 cells or dividing MG87/TRKB/luc/Elk1 cells; assay: Toxic or adverse effect on cells (summary statement); format: cell-based
From the text: The Trk antagonists of the invention share a similar indole-like basic structure; however, substituent substitution yielded compounds with markedly high activity and specificity for the Trk family.

Syk [3] = target: T2, Syk (Homo sapiens, UniProt P43405); assay: In vitro kinase profiling (48 kinases), Syk; format: biochemical; set-up: Aurora-B, CaMMK2, Chk2, Irak4, Lck, Map3K11, Syn aa1-635, TrkA, TrkB, and TrkC; purchased ProQinase, Germany (custom-ordered assay service); details: for inhibition of Syk: own experiments
From the text: (§1) The biochemical kinase assays were custom ordered from ProQinase, Germany.

Syk [4] = target: T2, Syk; details: cited from earlier work
[5] = target: 48 kinases representing the human kinome; assay: In vitro kinase profiling, panel of 48 kinases (off-targets); format: biochemical; details: 100 nM
From the text: as §1

Aqueous solubility = format: physicochemical; details: room temperature
TrkB = target: T3, TrkB (Rattus norvegicus, UniProt Q63604); assay: Western blot of phosphorylated TrkB in MG87/TrkB/luc/Elk1 cells; format: cell-based; details: concurrently with BDNF, statistically significant reduction at 1 μM
T3 construct: expressed in transfected cells; host or cells: MG87/TrkB/luc/Elk1
T3 sequence (Q63604 32-821): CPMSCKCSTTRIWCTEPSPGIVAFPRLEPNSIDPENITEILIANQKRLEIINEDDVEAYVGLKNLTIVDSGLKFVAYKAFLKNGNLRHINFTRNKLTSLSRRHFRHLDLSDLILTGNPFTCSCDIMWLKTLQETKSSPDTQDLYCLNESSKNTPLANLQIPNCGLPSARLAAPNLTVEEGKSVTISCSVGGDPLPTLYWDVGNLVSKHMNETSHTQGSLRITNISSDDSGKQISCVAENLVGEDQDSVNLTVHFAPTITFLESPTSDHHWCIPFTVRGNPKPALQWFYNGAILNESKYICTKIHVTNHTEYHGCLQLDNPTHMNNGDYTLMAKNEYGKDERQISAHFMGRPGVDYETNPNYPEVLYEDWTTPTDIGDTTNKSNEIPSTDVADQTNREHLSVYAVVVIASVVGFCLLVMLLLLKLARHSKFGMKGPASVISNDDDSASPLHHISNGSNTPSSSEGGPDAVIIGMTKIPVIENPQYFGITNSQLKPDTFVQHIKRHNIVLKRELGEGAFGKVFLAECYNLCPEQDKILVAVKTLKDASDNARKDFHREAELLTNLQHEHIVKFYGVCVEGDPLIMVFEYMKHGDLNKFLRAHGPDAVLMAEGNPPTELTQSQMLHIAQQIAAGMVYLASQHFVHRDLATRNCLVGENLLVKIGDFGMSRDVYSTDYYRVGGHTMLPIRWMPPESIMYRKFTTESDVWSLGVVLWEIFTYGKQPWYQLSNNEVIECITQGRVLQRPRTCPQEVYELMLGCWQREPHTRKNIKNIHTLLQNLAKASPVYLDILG
Method: (§2) The compounds were tested on PC-12 and MG87/TrkB/luc/Elk1 cells that express TrkA and TrkB, respectively. The cells were treated concurrently with NGF or BDNF and the compounds at three different concentrations. The levels of phosphorylated kinases were assessed using respective antibodies and further quantification of western blot signals. […] Additionally, in these two distinct cellular systems the activity of the Trk proteins may be incomparable due to their different concentration or interaction partners that can affect their behavior. For this reason, most probably there is no big selectivity of these compounds for the Trk kinases which is expected, as the ATP-binding pockets of Trk proteins are highly similar.
(§3) The PC-12 and MG87/TrkB/luc/Elk1 cells were plated on 6-well plates one day prior to the assay. Cells were treated for 10 minutes with compounds and simultaneously with 50 ng/ml of NGF (PC-12 cells) or BDNF (MG87/TrkB/luc/Elk1 cells). 0.1% of DMSO was used to determine the base level, 0.1% of DMSO concurrently with 50 ng/ml of NGF or BDNF served as a negative control and 0.1% of DMSO concurrently with 5 nM of AZ-23 as a positive control. Thereafter, western blotting was performed as described previously. Antibodies used included: rabbit anti-TrkA (#06-574; 1:1000) from Millipore; rabbit anti phospho-TrkA (#9141; 1:1000), rabbit anti phospho-TrkA/TrkB (#4619; 1:1000), rabbit anti-TrkB (#4603; 1:1000) and rabbit anti phospho-Akt (#4058; 1:3000) from Cell Signaling; mouse anti phosphor-Erk1/2 (#sc-7383; 1:1000) from Santa Cruz and anti-tubulinβ clone E7 (1:1000) from Prof. Michael Klymkovsky.

MG87/TrkB/luc/Elk1 cells = assay: Cellular ATP content, CellTiter-Glo viability assay; format: cell-based; details: different concentrations, 24 h
Method: ATP was measured at least from 8 different wells per treatment condition.

In vivo toxicology study = details: C57/B16 mice
TrkA [6] = target: T1, TrkA; assay: Western blot of phosphorylated TrkA in PC-12 cells; format: cell-based; details: concurrently with NGF, statistically significant reduction at 1 μM
Method: as §2, §3

Akt and Erk1/2 = assay: Western blot of phosphorylated downstream kinases; format: cell-based; details: compared to NGF or BDNF alone
Method: as §2, §3

Rat cortical cells = assay: Viability of primary cortical neurons (neuron count); format: cell-based; details: 24 h, even at 1 μM concentration
Method: Neurons were grown in NEUROBASAL, a medium supplemented with B27 with phenol red on ploy-L-lysine-coated 35 mm glass bottomed dishes. Culture media and supplements were obtained from Invitrogen (Carlsbad, Calif.). For viability measurements neurons were first transfected with neuronal maker, pAAV-hSyn-DsRedExpress obtained from Addgene (Cambridge, Mass.) allowing better to assess the morphology of individual neurons. Briefly, the condition medium was replaced with 100 μL Opti-MEM 1 medium, containing 2% Lipofectamine 2000 and 1-2 μg of total DNA. Neurons were incubated for 3-4 hrs, after which fresh medium was added.

TrkA [7] = target: T4, TrkA (Homo sapiens, UniProt P04629); details: 1 μM concentration; cited from earlier work
T4 construct: purchased ProQinase, Germany (custom-ordered assay service)
T4 sequence (P04629 33-796): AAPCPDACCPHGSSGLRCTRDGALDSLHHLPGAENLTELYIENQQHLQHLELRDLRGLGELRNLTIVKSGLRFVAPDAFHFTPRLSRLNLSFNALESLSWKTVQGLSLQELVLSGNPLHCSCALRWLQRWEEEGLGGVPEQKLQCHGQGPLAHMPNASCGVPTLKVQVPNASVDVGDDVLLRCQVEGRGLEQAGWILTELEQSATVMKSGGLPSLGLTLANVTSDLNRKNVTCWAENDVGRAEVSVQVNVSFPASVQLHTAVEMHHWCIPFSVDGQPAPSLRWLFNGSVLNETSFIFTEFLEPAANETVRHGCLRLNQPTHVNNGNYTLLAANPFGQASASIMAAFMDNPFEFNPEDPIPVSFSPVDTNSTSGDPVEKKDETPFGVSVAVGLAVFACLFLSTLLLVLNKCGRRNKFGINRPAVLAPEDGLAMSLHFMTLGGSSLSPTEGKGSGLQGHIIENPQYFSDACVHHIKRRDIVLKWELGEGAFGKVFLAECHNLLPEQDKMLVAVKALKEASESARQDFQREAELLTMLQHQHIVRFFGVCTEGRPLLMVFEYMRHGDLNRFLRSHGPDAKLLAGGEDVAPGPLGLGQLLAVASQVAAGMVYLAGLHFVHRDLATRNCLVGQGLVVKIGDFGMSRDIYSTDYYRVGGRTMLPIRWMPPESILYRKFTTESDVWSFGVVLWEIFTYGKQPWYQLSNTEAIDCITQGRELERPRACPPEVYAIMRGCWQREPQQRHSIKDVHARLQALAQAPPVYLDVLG

TrkA [8] = target: T4, TrkA; assay: In vitro kinase profiling (48 kinases), TrkA; format: biochemical; details: 1 μM concentration; read-out: residual activity of TrkA
Method: According to the results, at concentration of 100 nM all compounds were relatively TrkA specific inhibiting only up to 3 off-target kinases, while reducing the activity of TrkA by at least 82% at 100 nM concentration and 94% at 1 μM concentration. At 100 nM, 2a25 was able to inhibit only TrkA. […] Kinases that were inhibited by most of the compounds at 1 concentration included Aurora-B, CAMKK2, CHK2, IRAK4, LCK, and MAP3K11.
as §1

Syk [9] = target: T2, Syk; details: 1 μM concentration; cited from earlier work

| Compound | IC50 (TrkA [1]) [nM] | toxic or adverse effect on cells [2] | inhibition of Syk (Syk [3]) | reported effect on Syk activity (Syk [4]) | kinases whose activity was reduced at least by 50% [5] | solubility (Aqueous solubility; aqueous medium (not further specified)) [µg/mL] | aqueous solubility (Aqueous solubility) [µM] | phosphorylation of TrkB (TrkB) | cell viability (cellular ATP content) (MG87/TrkB/luc/Elk1 cells) | toxic effects in mice (In vivo toxicology study) | phosphorylation of TrkA (TrkA [6]) | phosphorylation of downstream kinases Akt and Erk1/2 (Akt and Erk1/2) | number of viable neurons (Rat cortical cells) | remaining activity at 1 µM (Syk [3]; read-out: residual activity of Syk) [%] | residual activity of TrkA (Gao et al.) (TrkA [7]) [%] | remaining activity at 1 µM (TrkA [8]) [%] | residual activity of Syk (Gao et al.) (Syk [9]) [%] |
| --- | --- | --- | --- | --- | --- | --- | --- | --- | --- | --- | --- | --- | --- | --- | --- | --- | --- |
| COc1ccc2[nH]cc(/C=C3\C(=O)Nc4ccc(S(N)(=O)=O)cc43)c2c1 [Compound 2a23, (Z)-3-((5-methoxy-1H-indol-3-yl)methylene)-2-oxindole-5-sulfonamide] | ≤ 100 | no toxic or adverse effect | failed to inhibit Syk at significant levels | Syk inhibitors | only one kinase in addition to the Trk kinases | – | – | – | – | – | – | – | – | – | – | – | – |
| CN(C)S(=O)(=O)c1ccc2c(c1)/C(=C/c1cn(C)c3ccc(O)cc13)C(=O)N2 [Compound 3a25, (Z)-3-((5-hydroxy-1-methyl-1H-indol-3-yl)methylene)-N,N-dimethyl-2-oxindole-5-sulfonamide] | ≤ 100 | no toxic or adverse effect | – | – | only one kinase in addition to the Trk kinases | – | – | – | – | – | – | – | – | – | – | – | – |
| COc1ccc2c(c1)c(/C=C1\C(=O)Nc3ccc(S(=O)(=O)N(C)C)cc31)cn2C [Compound 2a25, (Z)-3-((5-methoxy-1-methyl-1H-indol-3-yl)methylene)-N,N-dimethyl-2-oxindole-5-sulfonamide] | ≤ 100 | no toxic or adverse effect | – | not to suppress Syk activity | only TrkA | 3.2 ± 0.1 (≈ 7.78 µM) | 7.8 ± 0.2 (≈ 3.21 µg/mL) | effectively inhibited | no effect | no toxic effects | effectively inhibited | diminished | No reduction | – | – | – | – |
| COc1ccc2c(c1)c(/C=C1\C(=O)Nc3ccc(S(N)(=O)=O)cc31)cn2C [Compound 2a22] | – | no toxic or adverse effect | – | – | – | – | – | effectively inhibited | – | – | effectively inhibited | diminished | – | – | – | – | – |
| Cn1cc(/C=C2\C(=O)Nc3ccc(S(N)(=O)=O)cc32)c2ccccc21 [Compound 2a21] | ≤ 100 | no toxic or adverse effect | failed to inhibit Syk at significant levels | Syk inhibitors | – | – | – | – | – | – | – | – | – | 47 | 1 | 2 | 38 |
| CNS(=O)(=O)c1ccc2c(c1)/C(=C/c1cn(C)c3ccc(OC)cc13)C(=O)N2 [Compound 4a22, (Z)-3-((5-methoxy-1-methyl-1H-indol-3-yl)methylene)-N-methyl-2-oxindole-5-sulfonamide] | – | no toxic or adverse effect | – | – | – | – | – | effectively inhibited | – | – | effectively inhibited | diminished | – | – | – | – | – |
